{"source": "patent US20210244698A1", "about": "“DIFFUSION ENHANCING COMPOUNDS AND THEIR USE WITH THROMBECTOMY AND EMBOLECTOMY AND OTHER VASCULAR DISEASE PROCEDURES” (DIFFUSION PHARMACEUTICALS LLC, priority 2018, published 2021)", "key": {"[1]": {"assay": "Solubility of TSC in water / aqueous solution with cyclodextrin", "type": "physicochemical", "from_the_text": "(§1) The use of gamma-cyclodextrin with TSC increases the solubility of TSC in water by 3-7 times. […] The solutions need not be equal-molar. The incorporation of the gamma cyclodextrin also allows for TSC to be absorbed into the blood stream when injected intramuscularly.\nA trans carotenoid such as TSC can be formulated with a cyclodextrin as noted above and a non-metabolized sugar such as mannitol (e.g. d-mannitol to adjust the osmotic pressure to be the same as that of blood). Solutions containing over 20 mg TSC/ml of solution can be made this way. This solution can be added to isotonic saline or to other isotonic solutions in order to dilute it and still maintain the proper osmolality."}, "[2]": {"assay": "Stability of TSC in formulation as a function of pH", "type": "physicochemical", "method": "Mannitol can be used to adjust osmolality and its concentration varies depending on the concentration of other ingredients. The glycine is held constant. […] The use of glycine is compatible with lyophilization. Alternatively, the TSC and cyclodextrin is formulated using a 50 mM bicarbonate buffer in place of the glycine."}, "[3]": {"assay": "Absorption of TSC into the blood stream after intramuscular injection with gamma cyclodextrin", "type": "in vivo", "settings": "rats", "from_the_text": "as §1"}}, "data": [{"smiles": "CC(/C=C/C=C(\\C)C(=O)[O-])=C\\C=C\\C=C(C)\\C=C\\C=C(/C)C(=O)[O-].[Na+].[Na+]", "note": "[TSC, trans sodium crocetinate]", "values": [{"measurement": "TSC content of aqueous solution", "setting": "[1]; TSC and gamma-cyclodextrin, aqueous solution", "value": "≤ 44 milligrams of TSC per ml of solution"}, {"measurement": "TSC content of solution", "setting": "[1]; formulated with a cyclodextrin and mannitol", "value": "over 20 mg TSC/ml of solution"}, {"measurement": "stability versus pH", "setting": "[2]", "value": "more stable at higher pHs"}, {"measurement": "absorption into the blood stream when injected intramuscularly", "setting": "[3]", "value": "Absorption is quick"}]}]}
